Experimental data published in publication PMC6501587 (The Journal of neuroscience : the official journal of the …, 2009).
Numbering of substitutions follows the chain as printed. Entries after “also recorded” stand apart in the source; their conditions may differ. Read-outs that look alike come from different tables or passages of the source. Values belong to the molecule of their own block, whether it stands above or below them.

Legend:
P2X4R = molecular target: T1, P2X4R (Rattus norvegicus, UniProt P51577); assay type: cell-based; conditions: oocytes
T1 sequence (P51577 1-388): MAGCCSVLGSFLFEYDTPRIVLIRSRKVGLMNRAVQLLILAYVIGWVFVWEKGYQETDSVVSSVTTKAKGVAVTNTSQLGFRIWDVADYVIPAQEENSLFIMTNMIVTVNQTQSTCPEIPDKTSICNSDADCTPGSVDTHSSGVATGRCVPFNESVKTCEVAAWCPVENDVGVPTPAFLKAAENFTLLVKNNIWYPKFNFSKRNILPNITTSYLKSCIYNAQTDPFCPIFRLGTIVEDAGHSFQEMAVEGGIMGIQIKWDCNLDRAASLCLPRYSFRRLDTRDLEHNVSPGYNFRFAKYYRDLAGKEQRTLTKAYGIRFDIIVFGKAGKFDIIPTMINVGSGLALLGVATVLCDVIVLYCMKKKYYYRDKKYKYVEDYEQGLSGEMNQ

P2X4/2a chimera = assay type: cell-based, rat; conditions: oocytes
P2X2aR [1] = molecular target: T2, P2X2aR (Rattus norvegicus, UniProt P49653); experiment: ATP-evoked currents, whole-cell patch clamp, HEK293 cells expressing P2X2aR; assay type: cell-based
T2 sequence (P49653 1-472): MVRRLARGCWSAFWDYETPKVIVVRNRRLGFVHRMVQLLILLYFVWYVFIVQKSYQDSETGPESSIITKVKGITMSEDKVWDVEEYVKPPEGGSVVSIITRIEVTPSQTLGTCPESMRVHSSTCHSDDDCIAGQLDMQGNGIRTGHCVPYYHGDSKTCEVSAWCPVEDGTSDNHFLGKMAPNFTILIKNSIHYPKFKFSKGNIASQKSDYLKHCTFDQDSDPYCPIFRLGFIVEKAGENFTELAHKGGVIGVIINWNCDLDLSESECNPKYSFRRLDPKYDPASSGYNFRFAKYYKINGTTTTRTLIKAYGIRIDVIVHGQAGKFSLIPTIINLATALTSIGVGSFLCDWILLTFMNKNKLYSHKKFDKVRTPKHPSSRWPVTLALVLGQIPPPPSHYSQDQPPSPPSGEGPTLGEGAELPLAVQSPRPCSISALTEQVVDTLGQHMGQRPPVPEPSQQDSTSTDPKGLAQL

P2X2a-C430S [2] = molecular target: T3, P2X2a-C430S (Rattus norvegicus, UniProt P49653, C430S); assay type: cell-based
T3 sequence (P49653 1-472 C430S): T2 sequence (P49653 1-472) with C430S

P2X4/2a-C430A chimera = conditions: oocytes; supplemental Fig. 3
P2X2a-C430A = molecular target: T4, P2X2a-C430A (Rattus norvegicus, UniProt P49653, C430A); assay type: cell-based; conditions: oocytes
T4 sequence (P49653 1-472 C430A): T2 sequence (P49653 1-472) with C430A

P2X2a-C430S [3] = molecular target: T3, P2X2a-C430S; assay type: cell-based; conditions: HEK293 cells
P2X2bR [4] = molecular target: T5, P2X2bR (Rattus norvegicus, UniProt P49653, DEL370-438); assay type: cell-based; conditions: oocytes
T5 sequence (P49653 with tags, fused parts or gaps DEL370-438): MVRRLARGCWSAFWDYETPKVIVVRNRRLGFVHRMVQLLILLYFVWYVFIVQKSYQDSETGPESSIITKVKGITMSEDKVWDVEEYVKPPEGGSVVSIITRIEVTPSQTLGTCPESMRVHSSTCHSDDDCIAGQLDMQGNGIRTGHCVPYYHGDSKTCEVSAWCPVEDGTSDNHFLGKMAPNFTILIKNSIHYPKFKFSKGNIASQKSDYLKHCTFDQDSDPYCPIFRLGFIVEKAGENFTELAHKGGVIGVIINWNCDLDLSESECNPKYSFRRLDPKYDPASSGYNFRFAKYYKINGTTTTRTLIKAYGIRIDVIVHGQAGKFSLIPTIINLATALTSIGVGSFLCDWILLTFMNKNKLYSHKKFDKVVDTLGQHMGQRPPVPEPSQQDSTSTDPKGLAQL

P2X2aR [5] = molecular target: T2, P2X2aR; assay type: cell-based
P2X2bR [6] = molecular target: T5, P2X2bR; assay type: cell-based; conditions: HEK293 cells
P2X4/2b chimera = assay type: cell-based, rat; conditions: oocytes

Molecule: mercury
effect on ATP-induced currents (P2X4R; 10 μM metal pre-applied 1 min and co-applied with 10 μM ATP): inhibited | washout time to attain control currents (P2X4R; after 10 μM metal): 20 to 30 min | effect on maximal ATP response (P2X4/2a chimera; 10 μM mercury): without significantly altering | potentiation of 1 μM ATP-induced current (P2X4/2a chimera; 10 μM metal, 1 μM ATP): 3.7 ± 0.8 fold | 10–90% deactivation time (P2X4/2a chimera; in the presence of mercury): 104.7 ± 11.5 s | increase of 10–90% deactivation time (P2X4/2a chimera; in the presence of mercury): 9 fold | sensitivity to mercury (P2X4/2a chimera): mercury-sensitive; also recorded: residual mercury-dependent potentiation | increase of ATP-evoked currents (P2X2aR [1]; 10 μM metal, ATP ~EC15): 5.9 ± 1.3 fold | potentiation of ATP-evoked currents (P2X2a-C430S [2]; 10 μM mercury, ATP ~EC15, oocytes): 2.2 ± 0.9 fold | reversibility of effect (P2X2a-C430S [2]; mercury): easily reversible | sensitivity to mercury (P2X2a-C430S [2]; oocytes, supplemental Fig. 3): residual mercury-dependent potentiation | sensitivity to mercury (P2X4/2a-C430A chimera): insensitivity | potentiation of ATP-evoked currents (P2X2a-C430A; 10 μM mercury, ATP ~EC15): 3.3 ± 0.7 fold | reversibility of effect (P2X2a-C430A; mercury): totally reversible; also recorded: easily reversible | sensitivity to mercury (P2X2a-C430A; supplemental Fig. 3): residual mercury-dependent potentiation | increase of ATP-gated currents (P2X2a-C430S [3]; 10 μM metal, ATP ~EC15): 1.9 ± 0.2 fold | effect on rate of deactivation (P2X2bR [4]; mercury): not significantly affected | sensitivity to mercury (P2X2bR [4]; supplemental Fig. 3): residual mercury-dependent potentiation | effect on the ATP-gated current (P2X2aR [5]; 10 μM metal pre-applied 1 min and co-applied with 30 μM ATP, oocytes): potentiated | potentiation of ATP-evoked currents (P2X2aR [5]; 10 μM metal, 1 min prior and during ATP (~EC15), oocytes): 12.3 ± 2.6 fold | potentiation of response still present after washout (P2X2aR [5]; 20 min after washout of 10 μM metal, oocytes): 35 ± 12% | reversibility of effect on peak current amplitude (P2X2aR [5]; after 10 and 20 min washouts, oocytes): not completely reversible | 10–90% deactivation time (P2X2aR [5]; in the presence of mercury, oocytes): 17.2 ± 2.8 s | decrease in the current amplitude on prolonged washout of the metal (P2X2aR [5]; mercury-induced potentiation, wild type receptor): ~70% | increase of ATP-gated currents (P2X2bR [6]; 10 μM metal, ATP ~EC15): 2.5 ± 0.5 fold | effect on ATP concentration-response curve (P2X4/2b chimera; 10 μM mercury): did not displace | effect on receptor deactivation (P2X4/2b chimera; 10 μM mercury): nor modified receptor deactivation | effect on receptor deactivation (P2X4/2b chimera; 10 μM mercury, listed as Mercury): not significantly affected | sensitivity to mercury (P2X4/2b chimera; 10 μM): mercury resistant; also recorded: insensitivity

inhibition of receptor activity (P2X4R; 1 mM H2O2): 43.8 ± 0.1% | increase of ATP-evoked currents (P2X2aR [1]; 1 mM H2O2, ATP ~EC15): 1.9 ± 0.3 fold | sensitivity to H2O2 (P2X2a-C430S [2]; oocytes): totally resistant | sensitivity to H2O2 (P2X2a-C430A): totally resistant | sensitivity to H2O2 (P2X2a-C430S [3]; 1 mM): completely resistant | sensitivity to H2O2 (P2X2bR [4]): totally resistant | increase of ATP-gated currents (P2X2aR [5]; 0.3 mM H2O2, ATP ~EC15, oocytes): 2.8 ± 0.3 fold | sensitivity to H2O2 (P2X2bR [6]; 1 mM): completely resistant
Molecule: OO [H2O2, hydrogen peroxide]
increase of the currents (P2X4/2a chimera; 1 mM H2O2): 1.9 ± 0.2 fold | currents remaining increased after washout (P2X4/2a chimera; 10 min washout after 1 mM H2O2): 0.3 ± 0.1 fold | effect of concentrations larger than 1 mM on cells (oocytes and HEK293 cells): cell damage and membrane dissolution | sensitivity to H2O2 (P2X4/2b chimera): totally resistant
